Three compounds from ChEMBL document CHEMBL1201862, “PubChem BioAssay data set” (2004) can be followed below.

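Tested at 5 concentrations; 48 h exposure; 96-well plates; endpoints linearly interpolated, else capped at highest concentration. GI50 marks 50% less growth.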 The source made the active and inactive calls. Rule as the data show it: active = GI50 up to about 1.1 µM and inactive = higher. A value given as a limit tells only on which side of the number the result lay.

Test systems include ACHN; A498; PC-3; OVCAR-4; SR; EKVX; M14; UO-31; NCI-H23; MDA-MB-231; NCI-H226; OVCAR-8; 786-0; CCRF-CEM; NCI-H460; Malme-3M; SF-539; UACC-62; BT-549; HOP-62.
What all share (assay): NCI anticancer screen, dose series, 48 h

Take `COc1ccc(Cc2n[nH]c(Nc3ccc(Br)cc3)nc2=O)cc1OC`: the GI50 in the experiment on ACHN was > 100 µM (inactive); in the experiment on A498 it was > 100 µM (inactive); in the experiment with PC-3, > 92.5 µM (inactive); with OVCAR-4, > 100 µM (inactive); in the experiment with SR it was 30.3 µM (inactive); with EKVX it was > 100 µM (inactive). Moreover, the GI50 was > 89.7 µM (inactive) in the experiment on M14; > 76.2 µM (inactive) in the experiment with UO-31; > 100 µM (inactive) with NCI-H23; 50.1 µM (inactive) with MDA-MB-231; > 100 µM (inactive) with NCI-H226; > 100 µM (inactive) in the experiment on OVCAR-8. Also, the GI50 is > 100 µM (inactive) in the experiment on 786-0; 59.2 µM (inactive) with CCRF-CEM; > 100 µM (inactive) in the experiment on NCI-H460; 47.2 µM (inactive) in the experiment on Malme-3M; > 100 µM (inactive) with SF-539; 65.8 µM (inactive) in the experiment on UACC-62. For the same compound, the GI50 in the experiment on BT-549 is 27 µM (inactive); in the experiment on HOP-62, 42.9 µM (inactive).

In the case of `CCCCCCCCCCCCCCCCCCNc1ccn(C2OC(COP(=O)(O)OC3CC(n4cc(F)c(=O)[nH]c4=O)OC3COP(=O)(O)OCC3OC(n4ccc(N)nc4=O)C(O)C3O)C(O)C2O)c(=O)n1` (stereo not given), the GI50 in the experiment on ACHN was 0.143 µM (active); in the experiment with A498, 20.8 µM (inactive); with PC-3, 7.14 µM (inactive); in the experiment with OVCAR-4 it was 41.7 µM (inactive); with SR it was 0.407 µM (active); in the experiment on EKVX, 32 µM (inactive). The GI50 in the experiment with M14 is 0.453 µM (active); with UO-31, 11.5 µM (inactive); in the experiment with NCI-H23 it was 2.92 µM (inactive); in the experiment with MDA-MB-231, 26.2 µM (inactive); in the experiment with NCI-H226, > 24 µM (inactive); with OVCAR-8, 3.1 µM (inactive). Further, the GI50 in the experiment with 786-0 is 1.31 µM (inactive); with CCRF-CEM, 0.0206 µM (active); in the experiment on NCI-H460, < 0.0129 µM (active); in the experiment with Malme-3M, > 46.9 µM (inactive); with SF-539 it was < 0.01 µM (active); with UACC-62 it was 1.1 µM (active). Moreover, the GI50 in the experiment on BT-549 was 15.1 µM (inactive); in the experiment with HOP-62, 10.4 µM (inactive).

As for `c1ccc2c(c1)OC(N1CCCC1)c1cnc(N3CCCC3)nc1-2` (stereo not given), the GI50 in the experiment with ACHN is 40.6 µM (inactive); in the experiment on A498, 26.5 µM (inactive); in the experiment with PC-3, 28.7 µM (inactive); with OVCAR-4 it was 36.2 µM (inactive); with SR, 29.7 µM (inactive); in the experiment with EKVX it was 19.4 µM (inactive). The GI50 in the experiment on M14 is 50.9 µM (inactive); with UO-31, 24.3 µM (inactive); in the experiment on NCI-H23, 37 µM (inactive); in the experiment with MDA-MB-231, 41.8 µM (inactive); in the experiment with NCI-H226, 54.2 µM (inactive); with OVCAR-8, 51.3 µM (inactive). Besides, the GI50 with 786-0 is 40.3 µM (inactive); in the experiment with CCRF-CEM, 23.8 µM (inactive); in the experiment on NCI-H460, 36.7 µM (inactive); in the experiment on Malme-3M, 40.7 µM (inactive); in the experiment on SF-539, 68.1 µM (inactive); in the experiment on UACC-62, 50.7 µM (inactive). Further, the GI50 in the experiment with BT-549 was 21.2 µM (inactive); in the experiment with HOP-62, 68.2 µM (inactive).
